Among the data in ChEMBL document CHEMBL4325871 (Eur J Med Chem, 2019) are Activity and inhibition values, retold here.

Assay [1] deals with Dual specificity protein kinase CLK3 (Homo sapiens) (UniProt P49761). The assay is described as follows: Inhibition of human CLK3 assessed as residual activity at 1 uM using MBP as substrate by [gamma-33P]-ATP assay relative to control.
Assay [2] addresses T1, Serine/threonine-protein kinase Chk1 (Homo sapiens) (UniProt O14757).
T1 sequence (whole entry): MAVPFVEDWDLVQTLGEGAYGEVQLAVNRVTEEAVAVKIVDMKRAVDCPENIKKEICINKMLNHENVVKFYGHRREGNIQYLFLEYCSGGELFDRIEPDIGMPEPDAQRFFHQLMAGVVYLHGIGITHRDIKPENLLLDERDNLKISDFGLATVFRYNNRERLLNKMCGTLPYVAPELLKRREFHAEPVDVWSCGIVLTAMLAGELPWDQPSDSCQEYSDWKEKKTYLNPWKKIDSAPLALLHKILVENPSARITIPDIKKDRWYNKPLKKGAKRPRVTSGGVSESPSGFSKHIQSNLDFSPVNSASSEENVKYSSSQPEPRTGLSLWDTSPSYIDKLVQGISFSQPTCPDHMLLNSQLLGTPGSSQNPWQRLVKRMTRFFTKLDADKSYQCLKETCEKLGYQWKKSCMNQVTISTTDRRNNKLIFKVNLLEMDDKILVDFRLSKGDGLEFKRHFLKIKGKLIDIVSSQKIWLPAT
The assay is described as follows: Inhibition of CHK1 phosphorylation at S296 residue in human FOLFOX-resistant HCT116 cells after 24 hrs by Western blot analysis.

Assay [3] deals with Protein kinase C alpha type (Homo sapiens) (UniProt P17252). The assay is described as follows: Inhibition of human PKCalpha assessed as residual activity at 1 uM using ERMRPRKRQGSVRRRV as substrate by [gamma-33P]-ATP assay relative to control.
In assay [4] the target is Tyrosine-protein kinase ZAP-70 (Homo sapiens) (UniProt P43403). The assay is described as follows: Inhibition of human ZAP70 assessed as residual activity at 1 uM using poly[Glu:Tyr] (4:1) as substrate by [gamma-33P]-ATP assay relative to control.
For assay [5], the target named is Mitogen-activated protein kinase kinase kinase 5 (Homo sapiens) (UniProt Q99683). The assay is described as follows: Inhibition of human ASK1 assessed as residual activity at 1 uM using MBP as substrate by [gamma-33P]-ATP assay relative to control.
The target in assay [6] is Interleukin-1 receptor-associated kinase 4 (Homo sapiens) (UniProt Q9NWZ3). Description: Inhibition of human IRAK4 assessed as residual activity at 1 uM using MBP as substrate by [gamma-33P]-ATP assay relative to control.
The target of assay [7] is Casein kinase I isoform alpha (Homo sapiens) (UniProt P48729). Description: Inhibition of human CK1a1 assessed as residual activity at 1 uM using KRRRAL[pS]VASLPGL as substrate by [gamma-33P]-ATP assay relative to control.
Assay [8] has as its target T1, Serine/threonine-protein kinase Chk1 (Homo sapiens). The assay is described as follows: Inhibition of CHK1 phosphorylation at S317 residue in human FOLFOX-resistant HCT116 cells after 24 hrs by Western blot analysis. (In general: In western blotting, separated proteins are transferred to a membrane and probed.)
For assay [9], the target named is MAP kinase-interacting serine/threonine-protein kinase 2 (Homo sapiens) (UniProt Q9HBH9). The assay is described as follows: Inhibition of human MNK2 assessed as residual activity at 1 uM using MBP as substrate by [gamma-33P]-ATP assay relative to control.
The target in assay [10] is Dual specificity tyrosine-phosphorylation-regulated kinase 1A (Homo sapiens) (UniProt Q13627). The assay is described as follows: Inhibition of human DYRK1A assessed as residual activity at 1 uM using RRRFRPASPLRGPPK as substrate by [gamma-33P]-ATP assay relative to control.
In assay [11] the target is Platelet-derived growth factor receptor beta (Homo sapiens) (UniProt P09619). The assay is described as follows: Inhibition of human PDGFRbeta assessed as residual activity at 1 uM using poly[Glu:Tyr] (4:1) as substrate by [gamma-33P]-ATP assay relative to control.
The target in assay [12] is Mitogen-activated protein kinase kinase kinase 3 (Homo sapiens) (UniProt Q99759). The assay is described as follows: Inhibition of human MEKK3 assessed as residual activity at 1 uM using MBP as substrate by [gamma-33P]-ATP assay relative to control.
In assay [13] the target is Insulin receptor (Homo sapiens) (UniProt P06213). The assay is described as follows: Inhibition of human IR assessed as residual activity at 1 uM using poly[Glu:Tyr] (4:1) as substrate by [gamma-33P]-ATP assay relative to control.
Assay [14] addresses Activin receptor type-1 (Homo sapiens) (UniProt Q04771). The assay is described as follows: Inhibition of human ALK2 assessed as residual activity at 1 uM using casein as substrate by [gamma-33P]-ATP assay relative to control.
Assay [15] has as its target Serine/threonine-protein kinase TAO3 (Homo sapiens) (UniProt Q9H2K8). Description: Inhibition of human TAOK3 assessed as residual activity at 1 uM using MBP as substrate by [gamma-33P]-ATP assay relative to control.
In assay [16] the target is T1, Serine/threonine-protein kinase Chk1 (Homo sapiens). The assay is described as follows: Inhibition of CHK1 phosphorylation at S345 residue in human FOLFOX-resistant HCT116 cells after 24 hrs by Western blot analysis.
Assay [17] has as its target Tyrosine-protein kinase JAK1 (Homo sapiens) (UniProt P23458). Description: Inhibition of human JAK1 assessed as residual activity at 1 uM using poly[Glu:Tyr] (4:1) as substrate by [gamma-33P]-ATP assay relative to control.
Assay [18] deals with T1, Serine/threonine-protein kinase Chk1 (Homo sapiens). Description: Inhibition of CHK1 phosphorylation at S296 residue in human FOLFOX-resistant HT-29 cells after 24 hrs by Western blot analysis.
The target of assay [19] is Serine/threonine-protein kinase TAO1 (Homo sapiens) (UniProt Q7L7X3). Description: Inhibition of human TAOK1 assessed as residual activity at 1 uM using MBP as substrate by [gamma-33P]-ATP assay relative to control.
For assay [20], the target named is Cyclin-dependent kinase 14/Cyclin-Y (Homo sapiens) (UniProt O94921+Q8ND76). Description: Inhibition of human CDK14/cyclin-Y assessed as residual activity at 1 uM using RB protein as substrate by [gamma-33P]-ATP assay relative to control. Format: protein-complex assay.
For assay [21], the target named is Serine/threonine-protein kinase 33 (Homo sapiens) (UniProt Q9BYT3). Description: Inhibition of human STK33 assessed as residual activity at 1 uM using MBP as substrate by [gamma-33P]-ATP assay relative to control.
In assay [22] the target is Serine/threonine-protein kinase Nek3 (Homo sapiens) (UniProt P51956). Description: Inhibition of human NEK3 assessed as residual activity at 1 uM using MBP as substrate by [gamma-33P]-ATP assay relative to control.
The target in assay [23] is Angiopoietin-1 receptor (Homo sapiens) (UniProt Q02763). Description: Inhibition of human TIE2 assessed as residual activity at 1 uM using poly[Glu:Tyr] (4:1) as substrate by [gamma-33P]-ATP assay relative to control.
For assay [24], the target named is CDK9/Cyclin-T2 (Homo sapiens) (UniProt P50750+O60583). The assay is described as follows: Inhibition of human CDK9/cyclin-T2 assessed as residual activity at 1 uM using KTFCGTPEYLAPEVRREPRILSEEEQEMFRDFDYIADWC as substrate by [gamma-33P]-ATP assay relative to control. The format is protein-complex assay.

Chain of Insulin receptor (Homo sapiens) (P06213 28-758 limits assumed): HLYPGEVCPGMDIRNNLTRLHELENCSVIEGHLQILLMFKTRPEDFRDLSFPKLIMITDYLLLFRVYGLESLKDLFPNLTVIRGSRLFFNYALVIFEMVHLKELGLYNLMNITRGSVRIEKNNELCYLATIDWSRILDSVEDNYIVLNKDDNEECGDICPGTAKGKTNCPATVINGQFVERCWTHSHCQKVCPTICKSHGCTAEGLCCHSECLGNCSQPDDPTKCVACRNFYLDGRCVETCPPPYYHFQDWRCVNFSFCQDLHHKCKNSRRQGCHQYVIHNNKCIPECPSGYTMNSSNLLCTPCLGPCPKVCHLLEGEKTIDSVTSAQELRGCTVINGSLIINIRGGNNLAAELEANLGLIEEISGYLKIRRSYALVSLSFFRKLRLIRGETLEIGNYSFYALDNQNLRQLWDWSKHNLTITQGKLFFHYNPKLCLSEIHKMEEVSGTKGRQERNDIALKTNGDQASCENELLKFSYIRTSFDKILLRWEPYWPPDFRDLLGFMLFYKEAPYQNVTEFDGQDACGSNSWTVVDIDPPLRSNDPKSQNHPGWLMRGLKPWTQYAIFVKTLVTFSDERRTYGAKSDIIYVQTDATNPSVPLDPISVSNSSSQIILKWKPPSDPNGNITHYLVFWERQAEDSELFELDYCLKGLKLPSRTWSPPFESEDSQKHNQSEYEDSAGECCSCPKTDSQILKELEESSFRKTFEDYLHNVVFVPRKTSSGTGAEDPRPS
Chain of Insulin receptor (Homo sapiens) (P06213 763-1382 limits assumed): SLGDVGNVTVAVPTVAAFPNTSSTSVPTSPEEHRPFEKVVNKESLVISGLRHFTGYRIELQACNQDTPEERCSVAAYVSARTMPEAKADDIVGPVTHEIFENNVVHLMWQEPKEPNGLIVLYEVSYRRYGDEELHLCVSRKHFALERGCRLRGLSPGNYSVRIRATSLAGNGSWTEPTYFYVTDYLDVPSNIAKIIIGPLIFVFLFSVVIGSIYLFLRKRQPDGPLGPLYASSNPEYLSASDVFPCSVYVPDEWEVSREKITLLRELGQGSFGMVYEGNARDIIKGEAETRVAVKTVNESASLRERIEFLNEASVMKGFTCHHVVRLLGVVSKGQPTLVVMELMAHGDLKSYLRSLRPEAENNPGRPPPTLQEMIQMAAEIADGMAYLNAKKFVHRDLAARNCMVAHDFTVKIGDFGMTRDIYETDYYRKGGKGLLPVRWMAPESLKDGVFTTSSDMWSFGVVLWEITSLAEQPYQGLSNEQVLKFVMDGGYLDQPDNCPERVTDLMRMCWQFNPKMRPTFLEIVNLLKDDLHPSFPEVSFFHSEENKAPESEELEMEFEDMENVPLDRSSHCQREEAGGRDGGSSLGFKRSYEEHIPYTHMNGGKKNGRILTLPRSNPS
Chain of MAP kinase-interacting serine/threonine-protein kinase 2 (Homo sapiens) (Q9HBH9 whole entry, looked up): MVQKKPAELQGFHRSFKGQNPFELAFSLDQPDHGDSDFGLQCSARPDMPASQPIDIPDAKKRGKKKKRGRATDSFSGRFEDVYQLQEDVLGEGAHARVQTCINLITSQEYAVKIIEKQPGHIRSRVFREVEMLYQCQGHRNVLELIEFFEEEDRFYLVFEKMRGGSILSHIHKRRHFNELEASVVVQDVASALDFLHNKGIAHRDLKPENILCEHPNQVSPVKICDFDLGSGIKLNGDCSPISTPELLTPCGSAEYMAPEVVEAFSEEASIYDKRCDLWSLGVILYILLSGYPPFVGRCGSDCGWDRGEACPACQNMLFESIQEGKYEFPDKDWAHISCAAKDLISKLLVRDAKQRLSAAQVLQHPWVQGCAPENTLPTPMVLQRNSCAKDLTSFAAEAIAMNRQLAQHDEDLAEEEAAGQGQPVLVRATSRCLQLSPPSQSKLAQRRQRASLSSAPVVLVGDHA
Chain of Serine/threonine-protein kinase 33 (Homo sapiens) (Q9BYT3 whole entry, looked up): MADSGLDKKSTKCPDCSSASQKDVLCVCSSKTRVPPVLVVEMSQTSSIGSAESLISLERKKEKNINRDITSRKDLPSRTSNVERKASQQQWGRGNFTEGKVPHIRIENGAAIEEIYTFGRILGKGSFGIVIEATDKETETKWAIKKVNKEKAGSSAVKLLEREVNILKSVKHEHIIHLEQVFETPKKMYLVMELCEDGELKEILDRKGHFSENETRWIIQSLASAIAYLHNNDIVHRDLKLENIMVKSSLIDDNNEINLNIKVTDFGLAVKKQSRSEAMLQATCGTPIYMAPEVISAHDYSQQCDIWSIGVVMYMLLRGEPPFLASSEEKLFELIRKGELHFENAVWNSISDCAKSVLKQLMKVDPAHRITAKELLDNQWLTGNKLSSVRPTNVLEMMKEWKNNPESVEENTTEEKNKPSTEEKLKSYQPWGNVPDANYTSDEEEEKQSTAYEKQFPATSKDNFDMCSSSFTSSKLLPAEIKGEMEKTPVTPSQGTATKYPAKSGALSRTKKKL
Chain of Dual specificity protein kinase CLK3 (Homo sapiens) (P49761 whole entry, looked up): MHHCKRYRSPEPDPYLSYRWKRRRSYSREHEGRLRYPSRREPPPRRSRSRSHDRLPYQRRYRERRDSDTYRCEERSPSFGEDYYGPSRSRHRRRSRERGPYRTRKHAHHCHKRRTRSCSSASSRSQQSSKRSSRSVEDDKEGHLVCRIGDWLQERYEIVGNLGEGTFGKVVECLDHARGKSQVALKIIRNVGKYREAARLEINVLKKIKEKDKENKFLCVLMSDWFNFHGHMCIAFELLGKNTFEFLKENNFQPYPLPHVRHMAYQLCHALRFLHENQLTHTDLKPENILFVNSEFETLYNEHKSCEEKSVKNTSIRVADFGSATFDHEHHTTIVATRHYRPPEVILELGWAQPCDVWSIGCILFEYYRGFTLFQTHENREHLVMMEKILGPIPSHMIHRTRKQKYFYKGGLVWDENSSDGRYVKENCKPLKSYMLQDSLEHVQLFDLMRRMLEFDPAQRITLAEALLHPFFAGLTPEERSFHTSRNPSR
Chain of Mitogen-activated protein kinase kinase kinase 3 (Homo sapiens) (Q99759 whole entry): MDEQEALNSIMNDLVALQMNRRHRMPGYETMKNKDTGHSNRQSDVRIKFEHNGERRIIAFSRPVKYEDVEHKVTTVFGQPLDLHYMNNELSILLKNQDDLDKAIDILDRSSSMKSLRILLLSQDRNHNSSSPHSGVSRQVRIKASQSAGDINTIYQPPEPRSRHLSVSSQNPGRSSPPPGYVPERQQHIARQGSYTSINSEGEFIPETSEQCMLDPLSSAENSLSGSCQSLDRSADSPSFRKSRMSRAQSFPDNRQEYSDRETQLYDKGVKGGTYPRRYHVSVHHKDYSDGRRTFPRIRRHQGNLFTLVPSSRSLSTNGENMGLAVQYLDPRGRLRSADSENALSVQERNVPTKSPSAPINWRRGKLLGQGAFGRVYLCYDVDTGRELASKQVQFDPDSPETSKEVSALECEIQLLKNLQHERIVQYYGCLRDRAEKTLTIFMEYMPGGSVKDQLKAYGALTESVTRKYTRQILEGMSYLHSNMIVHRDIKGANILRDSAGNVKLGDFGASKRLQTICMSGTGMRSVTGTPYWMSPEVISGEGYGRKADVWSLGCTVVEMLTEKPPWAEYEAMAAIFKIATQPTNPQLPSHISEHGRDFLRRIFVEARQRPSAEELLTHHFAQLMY
Chain of Casein kinase I isoform alpha (Homo sapiens) (P48729 2-337 limits assumed): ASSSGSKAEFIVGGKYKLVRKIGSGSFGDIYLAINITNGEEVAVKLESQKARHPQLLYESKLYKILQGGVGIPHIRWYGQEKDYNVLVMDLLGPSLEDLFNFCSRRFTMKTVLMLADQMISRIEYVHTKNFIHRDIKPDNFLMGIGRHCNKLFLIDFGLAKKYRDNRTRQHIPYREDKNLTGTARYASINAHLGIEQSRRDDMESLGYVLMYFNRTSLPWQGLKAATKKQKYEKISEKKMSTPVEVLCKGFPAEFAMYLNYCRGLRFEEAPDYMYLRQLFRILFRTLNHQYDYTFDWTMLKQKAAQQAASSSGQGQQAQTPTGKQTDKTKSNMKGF
Chain of Serine/threonine-protein kinase TAO3 (Homo sapiens) (Q9H2K8 whole entry): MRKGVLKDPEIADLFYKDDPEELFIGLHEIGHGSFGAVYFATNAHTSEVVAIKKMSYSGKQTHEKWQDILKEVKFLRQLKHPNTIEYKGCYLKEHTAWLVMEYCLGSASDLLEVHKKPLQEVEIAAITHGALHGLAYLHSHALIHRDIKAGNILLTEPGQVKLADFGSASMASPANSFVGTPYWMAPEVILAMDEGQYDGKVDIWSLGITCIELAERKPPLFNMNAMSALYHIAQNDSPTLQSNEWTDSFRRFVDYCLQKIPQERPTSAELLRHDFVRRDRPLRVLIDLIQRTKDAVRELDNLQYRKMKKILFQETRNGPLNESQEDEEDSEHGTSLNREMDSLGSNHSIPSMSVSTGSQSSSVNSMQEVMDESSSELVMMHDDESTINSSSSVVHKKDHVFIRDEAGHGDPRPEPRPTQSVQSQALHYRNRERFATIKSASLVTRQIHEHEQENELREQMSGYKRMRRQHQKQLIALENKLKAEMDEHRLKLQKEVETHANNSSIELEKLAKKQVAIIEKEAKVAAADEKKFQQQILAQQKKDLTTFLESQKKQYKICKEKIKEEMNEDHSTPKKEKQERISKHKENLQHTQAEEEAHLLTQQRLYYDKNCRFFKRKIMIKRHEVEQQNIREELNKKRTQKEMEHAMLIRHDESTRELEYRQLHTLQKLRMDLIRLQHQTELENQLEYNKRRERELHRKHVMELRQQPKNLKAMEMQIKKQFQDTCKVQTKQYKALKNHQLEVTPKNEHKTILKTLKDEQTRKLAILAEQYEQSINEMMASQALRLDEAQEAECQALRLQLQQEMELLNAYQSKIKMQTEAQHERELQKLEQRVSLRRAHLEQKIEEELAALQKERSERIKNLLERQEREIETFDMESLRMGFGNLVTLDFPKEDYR

Turning to `C(=C\c1ccccc1)/C[N+]12CN3CN(CN(C3)C1)C2`, the Activity lay in the range of 96.2 to 96.9% in assay [1]; 94 to 95.2% in assay [3]; 94.2 to 96.3% in assay [4]; 89.4 to 90.7% in assay [5]; 92.1 to 96.8% in [6]; 94.9 to 96.5% in [7]. Moreover, the Activity in assay [9] fell in the range of 93 to 95.7%; in assay [10] it was 95.8 to 96.4%; in [11], 91.9 to 93.1%; in assay [12], 117 to 119%; in [13], 96 to 96.4%; in assay [14] it was 96.6 to 96.7%. Besides, the Activity lay within 92.8 to 93.1% in assay [15]; 92.4 to 92.6% in [17]; 94.8 to 96% in assay [19]; 95.2 to 96.5% in [20]; 94.9 to 95.4% in [21]; 88.4 to 92.3% in assay [22]. The figures for the Activity in assay [23] and in [24] were 91.4 to 93.7% and 87 to 94.5%, respectively. Further, the inhibition result in [2], in assay [8], in [16] and in [18] was “Dose-dependent effect” in each case.

`ClC/C=C/C[N+]12CN3CN(CN(C3)C1)C2`: the Activity in assay [1] was in the range of 92.6 to 95.8%; in assay [3] it was 93.9 to 94.3%; in [4] it was 90.6 to 91.5%; in [5], 87.6 to 89%; in assay [6], 91.5 to 92.7%; in assay [7], 95.6 to 96.5%. In addition, the Activity in assay [9] lay in the range of 91.2 to 92.6%; in [10], 95.7 to 95.8%; in assay [11] it was 90.5 to 92%; in assay [12] it was 118 to 123%; in assay [13], 95 to 96.7%; in assay [14], 94.7 to 94.8%. Also, the Activity in assay [15] lay within 94.1 to 94.7%; in assay [17], 92.7 to 94.5%; in assay [19] it was 95.7 to 96.8%; in assay [20], 96.5 to 97.3%; in [21], 86.5 to 88.4%; in [22], 86.9 to 92.5%. Also, the Activity was 95.9 to 96% in assay [23] and 95.7 to 97.6% in assay [24]. Moreover, the inhibition entry in assay [2], in assay [8], in [16] and in [18] was “Dose-dependent effect” in each case.
